Measured values from paper PMC3852661, “Structural basis of SUFU–GLI interaction in human Hedgehog signalling regulation” (Acta Crystallographica Section D: Biological Crystallography, 2013).
Where a SMILES comes first, the peptide text is derived from it. The star is where a group is joined. 5FAM = O=C1OC2(c3ccc(O)cc3Oc3cc(O)ccc32)c2ccc(C(=O)*)cc21

Key:
[1] = tested on: Hh pathway, Sufu −/− MEFs with SUFU-SH; test: Hh pathway reactivation in Sufu −/− MEFs expressing SUFU-SH; format: cell-based, mouse; details: 48–72 h, luciferase
Procedure: (§1) Sufu ^−/− mouse embryonic fibroblast (MEF) cells (Svärd et al., 2006[▶]) were transfected with a mixture of p8x3′Gli-BS LucII or p8x3′Gli-mBS LucII reporter constructs (Sasaki et al., 1997[▶]; generous gifts from Hiroshi Sasaki) together with pRL-SV40 (Promega) internal control using Lipofectamine LTX with Plus reagent (Invitrogen) according to the manufacturer’s instructions. Following transfection, Sufu ^−/− MEF cells were grown until the culture reached confluency (24–48 h) and the cells were then switched to low-serum medium (0.5% FBS) with 100–200 nM SAG (kindly provided by Jan Bergman, Karolinska Institutet), 10 µM purmorphamine (Calbiochem) or Shh conditioned medium (1:4) and grown for an additional 48–72 h. Cell lysis and luciferase activity measurements were performed using a Dual Luciferase Activity Assay Kit (Promega). For statistical evaluation of reporter gene assays, a one-tailed paired Student’s t-test was used. All activity measurements were performed at least three times in independent experiments.

[2] = tested on: Hh pathway, Sufu −/− MEFs with SUFU-Δ; test: Hh pathway reactivation in Sufu −/− MEFs expressing SUFU-Δ; format: cell-based, mouse; details: 48–72 h, luciferase
Procedure: as §1

[3] = tested on: Hh pathway, Sufu −/− MEFs with SUFU-IDRfly; test: Hh pathway reactivation in Sufu −/− MEFs expressing SUFU-IDRfly; format: cell-based, mouse; details: SAG 100–200 nM, 48–72 h, luciferase
Procedure: as §1

[4] = tested on: Hh pathway, Sufu −/− MEFs with SUFU-FL; test: Hh pathway reactivation in Sufu −/− MEFs expressing SUFU-FL; format: cell-based, mouse; details: 48–72 h, luciferase
Procedure: as §1

MBP-SUFU-FL [5] = target: T1, MBP-SUFU-FL (Homo sapiens, UniProt Q9UMX1); test: HDX protection of MBP-SUFU-FL by GLI peptides; format: binding
T1 construct: containing residues 32–483 of human SUFU and a C-terminal hexahistidine tag; hexahistidine tag (C); made in house; host or cells: Escherichia coli JM109 (DE3)
T1 sequence (Q9UMX1 32-483, other chains not shown): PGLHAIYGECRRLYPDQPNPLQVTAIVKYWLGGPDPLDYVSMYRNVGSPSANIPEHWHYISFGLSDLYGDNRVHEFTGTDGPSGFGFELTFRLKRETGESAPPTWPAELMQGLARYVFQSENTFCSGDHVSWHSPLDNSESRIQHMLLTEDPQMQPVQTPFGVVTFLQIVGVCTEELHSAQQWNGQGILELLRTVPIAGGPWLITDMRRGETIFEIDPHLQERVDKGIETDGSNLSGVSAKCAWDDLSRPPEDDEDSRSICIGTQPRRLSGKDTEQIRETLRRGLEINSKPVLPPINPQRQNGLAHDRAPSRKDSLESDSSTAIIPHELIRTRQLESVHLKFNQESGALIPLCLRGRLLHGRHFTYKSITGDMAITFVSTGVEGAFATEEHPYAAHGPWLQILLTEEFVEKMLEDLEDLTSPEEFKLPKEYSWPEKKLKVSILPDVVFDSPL
Procedure: To compare amide HDX kinetics between MBP-SUFU-FL and MBP-SUFU-Δ, 4 µl of each protein (both at 11 mg ml^−1 in 50 mM Na HEPES pH 7.0, 50 mM NaCl, 5 mM β-mercaptoethanol, 1.5 mM maltose) was mixed with 13 µl deuterated buffer with the same ionic composition as the protein sample. For MBP-SUFU-FL–Gli3p interaction experiments, 45 µl MBP-SUFU-FL (11 mg ml^−1) was mixed with 5 µl Gli3p (6 mM; a 5.5-fold excess) and incubated for 1 h. In the latter case, exchange was initiated by mixing 4 µl MBP-SUFU-FL–Gli3p with 13 µl deuterated buffer with the same ionic composition as the sample. Each reaction was stopped by adding 9 µl quenching solution (4 M urea, 50 mM TCEP, 1% TFA) and flash-freezing in liquid N2. Deuteration reactions were incubated for 60, 300, 600 and 1800 s for the MBP-SUFU-FL and MBP-SUFU-Δ experiments and 300, 600 and 1800 s for the MBP-SUFU-FL–Gli3p interaction experiments (at 4°C, in triplicate). A 24 h incubation was used as a fully deuterated sample for back-exchange correction.
Samples were analyzed in a semi-automated HDX-MS system (Biomotif AB, Sweden) in which manually injected samples were automatically digested, cleaned and separated at 1.0°C. […]

MBP-SUFU-FL [6] = target: T1, MBP-SUFU-FL; test: Microscale thermophoresis with FAM-GLI1p, MBP-SUFU-FL; details: binding to MBP-SUFU-FL; 50 nM FAM-GLI1p
Procedure: (§2) A 5-FAM-labelled peptide (FAM-GLI1p) comprising residues 115–131 of GLI1 (Supplementary Table S1b) was synthesized by Pepceuticals Ltd. A titration series of each recombinant protein was prepared by serial 1:1 dilutions in MST buffer (50 mM Tris–HCl pH 7.6, 150 mM NaCl, 10 mM MgCl2, 0.05% Tween-20) and mixed in a 1:1 ratio with FAM-GLI1p to give final concentrations of 50 nM FAM-GLI1p with MBP-SUFU constructs in the ranges 14.2–29 070 and 54–110 500 nM. Reactions were aspirated into glass capillaries and the thermophoretic movement of FAM-GLI1p was monitored using a Monolith NT.115 instrument (NanoTemper Technologies; Wienken et al., 2010[▶]), with a laser on for 30 s and off for 5 s and a laser power/voltage of 20% for MBP-SUFU-FL and the MBP-SUFU-FL mutants, 40% for MBP-SUFU-Δ and 80% for MBP-SUFU-SH. Fluorescence was measured before laser heating (F Cold) and after 30 s of laser-on time (F Hot). The normalized fluorescence F Hot/F Cold reflects the concentration ratio of labelled molecules. F Hot/F Cold was plotted directly and multiplied by a factor of […], yielding a relative change in fluorescence per thousand. K d was calculated from three independent thermophoresis measurements using NanoTemper software (NanoTemper Technologies).

MBP-SUFU-SH = test: Microscale thermophoresis with FAM-GLI1p, MBP-SUFU-SH; set-up: species or system human; details: binding to MBP-SUFU-SH; 50 nM FAM-GLI1p
Procedure: as §2

MBP-SUFU-Δ = target: T2, MBP-SUFU-Δ (Homo sapiens, UniProt Q9UMX1, DEL285-359/L360P/P281R/P282G/R280S/S279P); test: Microscale thermophoresis with FAM-GLI1p, MBP-SUFU-Δ; details: binding to MBP-SUFU-Δ; 50 nM FAM-GLI1p
T2 construct: subcloning different SUFU32–483 variants into vector pLJMBP4c; His tag (as in MBP-SUFU-FL; purified on HisTrap) (C); made in house; host or cells: Escherichia coli JM109 (DE3)
T2 sequence (Q9UMX1 with tags, fused parts or gaps S279P/R280S/P281R/P282G/DEL285-359/L360P limits assumed, other chains not shown): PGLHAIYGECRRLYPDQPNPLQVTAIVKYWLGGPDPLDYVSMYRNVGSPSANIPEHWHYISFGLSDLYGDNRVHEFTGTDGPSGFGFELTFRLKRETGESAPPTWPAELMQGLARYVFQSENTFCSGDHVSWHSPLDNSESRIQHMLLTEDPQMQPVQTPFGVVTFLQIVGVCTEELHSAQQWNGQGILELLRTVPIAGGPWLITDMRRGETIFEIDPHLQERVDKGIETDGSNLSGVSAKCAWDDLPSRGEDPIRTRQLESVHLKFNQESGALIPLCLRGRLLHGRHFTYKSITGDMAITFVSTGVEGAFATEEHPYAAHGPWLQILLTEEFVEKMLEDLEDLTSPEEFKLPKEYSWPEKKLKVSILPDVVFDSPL
Procedure: as §2

[7] = purmorphamine 10 µM, p ≤ 0.05, n = 5

Question: With `CNC1CCC(N(Cc2cccc(-c3ccncc3)c2)C(=O)c2sc3ccccc3c2Cl)CC1` (stereo not shown) [SAG] as the compound, how does the pathway reactivation ([1]; SAG 100–200 nM, p ≤ 0.01, n = 4) read?
Answer: failed to reactivate the pathway

Question: And the pathway reactivation ([2]; SAG 100–200 nM, p ≤ 0.005, n = 10)?
Answer: failed to reactivate the pathway

Question: What about the pathway reactivation [3] of the same compound?
Answer: repression could not be relieved

Question: What about the pathway reactivation ([4]; SAG 100–200 nM) of the same compound?
Answer: overrode repression by the full-length protein

Question: How did the pathway reactivation ([1]; purmorphamine 10 µM) turn out when `c1ccc2c(Oc3nc(Nc4ccc(N5CCOCC5)cc4)c4ncn(C5CCCCC5)c4n3)cccc2c1` [Purmorphamine] was run?
Answer: Lack of Hh pathway reactivation

Question: What about the pathway reactivation [2, 7] of the same compound?
Answer: the same disparate effects on SUFU-FL and SUFU-Δ repressive function

Question: What about the pathway reactivation ([2]; purmorphamine 10 µM, p ≤ 0.05, n = 5, listed as purmorphamine) of the same compound?
Answer: Lack of Hh pathway reactivation

Question: And the pathway reactivation [4, 7]?
Answer: the same disparate effects on SUFU-FL and SUFU-Δ repressive function

Question: “GLI3p: corresponding peptide from human GLI3; residues 328–344 (SSASGSYGHLSASAISP)” was tested. Which “protection of MBP-SUFU-FL from deuteration (HDX)” value (MBP-SUFU-FL [5]; Gli3p 5.5-fold excess, 1 h pre-incubation, 300, 600 and 1800 s exchange at 4°C, in triplicate, LC-MS) did it give?
Answer: more protected from exchange in the presence of the peptide

Question: “GLI3p-SHC: GLI3 peptide that terminates at His336; residues 328–336 (SSASGSYGH)” was tested. Which “protection of MBP-SUFU-FL from deuteration (HDX)” value (MBP-SUFU-FL [5]; GLI3 peptide that terminates at His336, data not shown) did it give?
Answer: unable to protect MBP-SUFU-FL from deuteration

Question: Which results are given for `CC[C@H](C)[C@H](NC(=O)[C@H](CO)NC(=O)[C@H](CC(C)C)NC(=O)[C@H](Cc1c[nH]cn1)NC(=O)CNC(=O)[C@H](Cc1ccc(O)cc1)NC(=O)[C@H](CO)NC(=O)CNC(=O)CNC(=O)[C@@H]1CCCN1C(=O)[C@H](CO)NC(=O)[C@@H](NC(=O)c1ccc2c(c1)C(=O)OC21c2ccc(O)cc2Oc2cc(O)ccc21)[C@@H](C)O)C(=O)NCC(=O)N[C@H](C(=O)N[C@@H](CCSC)C(=O)N[C@@H](CO)C(=O)N1CCC[C@H]1C(=O)O)[C@@H](C)O` [FAM-GLI1p] (5FAM-TSPGGSYGHLSIGTMSP-OH; C-terminus assumed)?
Answer: thermophoretic movement of the peptide on binding (MBP-SUFU-FL [6]): increased the rate of movement in the thermophoretic gradient; thermophoretic movement of the peptide on binding (MBP-SUFU-SH): decreased it; thermophoretic movement of the peptide on binding (MBP-SUFU-Δ): decreased it
